Test results published in patent US20100041617A1, “Modulating mxa expression” (priority 2004, published 2010).

Experiments:
Assay type in all cases: cell-based, human
[1] = test system: MxA promoter; assay: MxA promoter-luciferase reporter screen in stably transfected PC-3M cells; conditions: for Fold Increase in MxA Expression: MxA promoter-luciferase reporter in PC-3M cells, Control = 1.00; for expression of luciferase from the MxA promoter: PC-3M cells, DTP 1900 chemotype library screen, FIG. 8
Source text: FIG. 7 outlines the high-throughput screen used for identifying small molecules that induce MxA expression. The MxA promoter was cloned upstream of luciferase, and transfected it into PC-3M human prostate carcinoma cells. A cell line that stably expressed this promoter-reporter construct was isolated. This cell line was used for testing whether test agents could induce MxA expression by screening for increased luciferase expression using a library of 1900 chemotypes. Interferon-α was a positive control for this assay. To develop a reporter system for drug screening, particularly for a high throughput assay procedure, the MxA promoter was cloned upstream of a nucleic acid segment that encoded luciferase (see FIG. 7). A nucleic acid encoding a eukaryotic selection marker (neomycin) was also inserted in the vector used for the reporter cassette. After transfecting this construct into human prostate carcinoma cells, a cell line that stably maintained the MxA reporter gene was cloned. Test agents, including a library of small molecules (the DTP 1900 chemotype library) were screened to ascertain whether any of the test agents increased luciferase expression. Of the 1900 compounds tested, 5 compounds activated the MxA promoter and increased luciferase expression. […] Methods similar to those described in Example 4 were used to identify compounds that activate MxA expression.

[2] = test system: PC-3M cells; assay: Cell migration (motility) assay through pores of a PET membrane, PC-3M cells; conditions: for motility of PC-3M cells: FIG. 10
Experimental: Effect of MxA on motility of PC-3M. […] It has been reported that type I IFN could reduce cell motility (Brouty-Boyé and Zetter, 1980), one component of metastasis. To test whether PC-3 and PC-3M cells differed in motility, these two cell lines were subjected to a cell migration assay that measured the ability of cells to migrate through pores in a polyethylene terephthalate (PET) membrane. The five compounds that induced luciferase expression from the MxA were then tested to ascertain whether these compounds could also induce MxA protein expression and inhibit motility of PC-3-M prostate cancer cells. Each of the compounds could do so (FIGS. 9 and 10).

[3] = test system: MxA protein; assay: MxA protein induction by IFN-α, anti-MxA immunostaining, PC-3 cells; conditions: 24 hours, 1000 international units of IFN-α per ml, FIG. 2A
Experimental: (§1) PC-3 (Figure A1-4) and PC-3M (FIG. 2B) cells were grown for 24 hours on cover slips in the presence or absence of 1000 international units of IFN-α ml^1. The cells were then fixed, permeabilized, stained with monoclonal anti-MxA and Cy-3-conjugated goat anti-mouse Ig antibody and counterstained with DAPI. Immunofluorescence was visualized with a Zeiss Axiophot microscope with a 40× objective, and the images were captured on an Optronics CCD camera.
(§2) Induction of MxA expression by interferon. To determine whether IFN-α can induce MxA expression in PC-3 and PC-3M cells, cells were treated with recombinant IFN-α and subjected to immunohistochemical analysis using anti-MxA antibody and DAPI nuclear counterstaining to locate individual cells (FIG. 2). Consistent with the western blot result, this assay detected MxA protein only in untreated PC-3 and not in untreated PC-3M cells (compare upper left panels in FIGS. 2A and 2B). […] Western blotting (not shown) confirmed the IFN did induce increased MxA protein expression in both cell lines.

[4] = test system: MxA protein; assay: MxA protein induction by IFN-α, anti-MxA immunostaining, PC-3M cells; conditions: 24 hours, 1000 international units of IFN-α per ml, FIG. 2B
Experimental: as §1, §2

[5] = test system: PC-3 cells; assay: Cell migration (motility) assay through pores of a PET membrane, PC-3 cells; conditions: 1000 IU ml^−1 IFN-α, FIG. 3A
Source text: FIG. 3A graphically illustrates the motility of PC-3M and PC-3 cells, before and after exposure to 1000 IU ml^−1 IFN-α. Mean values of percent of control PC-3M mobility are shown as bar graphs with mean percentages indicated above each bar. Each value represents the mean of two independent triplicate determinations. Error bars show range of determinations.
Effect of MxA on motility of PC-3M. […] It has been reported that type I IFN could reduce cell motility (Brouty-Boyé and Zetter, 1980), one component of metastasis. To test whether PC-3 and PC-3M cells differed in motility, these two cell lines were subjected to a cell migration assay that measured the ability of cells to migrate through pores in a polyethylene terephthalate (PET) membrane.

[6] = test system: MxA protein; assay: Induction of MxA protein expression in PC-3-M prostate cancer cells by compounds; conditions: FIG. 9
Experimental: The five compounds that induced luciferase expression from the MxA were then tested to ascertain whether these compounds could also induce MxA protein expression and inhibit motility of PC-3-M prostate cancer cells. Each of the compounds could do so (FIGS. 9 and 10).

Row | Molecule | Fold Increase in MxA Expression [1] [fold] | further results
1 | COc1cc(C2C(Cl)C(=O)N2NC(=O)c2ccc(N)cc2)ccc1O (stereo not drawn) [Compound 20] | 1.37 | –
2 | IFN-α | – | PC-3M cell motility ([2]; 1000 IU ml^−1 IFN-α, FIG. 3A): reduced PC-3M cell motility to a level comparable to that of PC-3 cells; level of MxA protein after exposure to IFN-α [3]: increased substantially; level of MxA protein after exposure to IFN-α [4]: became detectable for the first time; PC-3 cell motility [5]: reduced its motility to levels below that seen when no IFN was present
3 | COc1cc2c3c(n(C)c(=O)c2cc1OC)-c1cc2c(cc1C3=O)OCO2 [Compound 8] | 1.71 | –
4 | COc1cc2c(cc1OC)C1C(=O)c3cc(OS(C)(=O)=O)c(OC)cc3C1N(C)C2=O (stereo not drawn) [Compound 13] | 2.15 | –
5 | Cc1c(C(=O)/C=C/c2c(Cl)cccc2Cl)c(=O)n(-c2ccccc2)n1C [Compound 22] | 0.32 | –
6 | CC1(C)OC(=S)N(c2ccccc2)C12C=Cc1cc3ccccc3cc1O2 (stereo not drawn) [Compound 31] | 0.91 | –
7 | CS(=O)(=O)CS(=O)(=O)OCCCl [Compound 11] | 1.11 | –
8 | O=S(=O)(c1cccc(N=C=S)c1)c1cccc(N=C=S)c1 [Compound 3] | 1.11 | –
9 | CO[C@H]1[C@H](O)[C@@H](O)[C@H](n2c3c(Cl)cccc3c3c4c(c5c6cccc(Cl)c6[nH]c5c32)C(=O)NC4=O)O[C@@H]1CO [Compound 12] | 1.46 | –
10 | C=CC[C@H]1[C@H](O[Si](C)(C)C(C)(C)C)C=CC(=O)[C@@H]1CC(=O)OCC [Compound 35] | 0.68 | –
11 | O=C1CC(=O)NC(=NN2C(=O)CSC2c2ccc(Cl)cc2)N1 (stereo not drawn) [Compound 28] | 1.40 | –
12 | Cc1cc(Cc2cc(C)c(N)cc2N)c(N)cc1N [NSC 7215, methylene-bis(2,4-amino-5-methyl-benzene)] | – | expression of luciferase from the MxA promoter [1]: induce expression of luciferase; induction of MxA protein expression [6]: induce expression of MxA protein; motility of PC-3M cells [2]: decrease the motility
13 | O=C(O)c1ccc(Oc2nc3ccccc3s2)cc1 [NSC 122335, 4-(benzothiazol-2-yloxy)-benzoic acid] | – | expression of luciferase from the MxA promoter [1]: induce expression of luciferase; induction of MxA protein expression [6]: induce expression of MxA protein; motility of PC-3M cells [2]: decrease the motility
14 | C=[N+](CNC(=O)CNC(=O)C(Cc1ccc([N+](=O)[O-])cc1)NC(=O)OC(C)(C)C)C(=O)CNC(=O)C(Cc1ccc([N+](=O)[O-])cc1)NC(=O)OC(C)(C)C (stereo not drawn) [Compound 24] | 0.84 | –
15 | O=[N+]([O-])c1ccc(Nc2nc3ccccc3s2)cc1 [NSC 34444, benzothiazol-2-yl-(4-nitro-phenyl)-amine] | – | expression of luciferase from the MxA promoter [1]: induce expression of luciferase
16 | CCOC(=O)[C@@H]1ON2O[C@H](OC3CCCCC3c3ccccc3)C[C@H]3OC(=O)[C@@H]1C32 (stereo partly drawn) [Compound 33] | 1.03 | –
17 | O=C1C(=C(C(=O)c2ccccc2)C(=O)c2ccccc2)OC(c2ccccc2)=C1C(=O)c1ccccc1 [Compound 36] | 1.62 | –
18 | COc1cc(C2C(Cl)C(=O)N2NC(=O)c2ccc(N)cc2)cc(Br)c1O (stereo not drawn) [Compound 21] | 1.64 | –
19 | N/N=C(/C(=O)Nc1cccc(Cl)c1)C(C(=O)c1ccc(O)cc1O)C1OC(=O)c2ccccc21 (stereo not drawn) [Compound 17] | 1.05 | –

Row | Molecule | Fold Increase in MxA Expression [1] [fold] | further results
20 | CCCS(=O)(=O)Nc1ccc(Nc2c3ccccc3nc3ccccc23)c(OC)c1.CS(=O)(=O)O [Compound 6] | 3.65 | –
21 | COC1C(O)C(C)OC(OC2C(Oc3cccc4c(O)c5c(=O)oc6ccc(C)c7c(=O)oc(c34)c5c67)OC(C)C3O[C@H](c4ccccc4)OC32)C1O (stereo partly drawn) [Compound 16] | 2.25 | –
22 | Cc1cc(=O)oc2cc(OC(=O)Nc3ccc(Cl)c(Cl)c3)ccc12 [Compound 7] | 1.18 | –
23 | CN1CCN(CCNc2ccc(CO)c3sc4ccccc4c(=O)c23)CC1 [Compound 4] | 1.32 | –
24 | CCN(CC)CCNc1ccc2nnn3c4ccc(OC(C)=O)cc4c(=O)c1c23 [Compound 32] | 2.64 | –
25 | CC(C)(Oc1ccc(Cl)cc1)C(=O)N(C(=O)N1CCCCC1)c1ccccc1 [Compound 29] | 1.03 | –
26 | Cc1cccc(NC(=O)C(=O)C(C2OC(=O)c3ccccc32)[N+](=O)[O-])c1C (stereo not drawn) [Compound 18] | 0.79 | –
27 | COc1ccc2cc(COCCC(=O)O)ccc2c1 [NSC 46669, 3-(6-Methoxy-naphthalen-2-ylmethoxy)-propionic acid] | – | expression of luciferase from the MxA promoter [1]: induce expression of luciferase; induction of MxA protein expression [6]: induce expression of MxA protein; motility of PC-3M cells [2]: decrease the motility
28 | O=c1c2cc(O)ccc2n2nnc3ccc(NCCNCCO)c1c32 [Compound 19] | 2.08 | –
29 | CCOC(=O)c1cccc(NC(=O)CBr)c1 [Compound 34] | 0.27 | –
30 | CC(C)CCc1c(Cl)nc(Cl)nc1Cl [Compound 2] | 1.03 | –
31 | COC1C(O)C(C)OC(CCOC2C(Oc3cccc4c(O)c5c(=O)oc6ccc(C)c7c(=O)oc(c34)c5c67)OC(C)C(O)C2O)C1O (stereo not drawn) [NSC 5159, 10-{3-[2-(3,5-Dihydroxy-4-methoxy-6-methyl-tetrahydro-pyran-2-yl)-ethoxy]-4,5-dihydroxy-6-methyl-tetrahydro-pyran-2-yloxy}-6-hydroxy-1 methyl-benzo[h]chromeno[5,4,3-cde]chromene-5,12-dione] | – | expression of luciferase from the MxA promoter [1]: induce expression of luciferase; induction of MxA protein expression [6]: induce expression of MxA protein; motility of PC-3M cells [2]: decrease the motility
32 | COC1CC(C)C(OC)c2cc(O)cc(c2O)NC(=O)/C(C)=C\C=C/C(C)C(OC(N)=O)/C(C)=C\C(C)C1OC (stereo not drawn) [Compound 10] | 0.40 | –
33 | CN(CCCn1ccnc1[N+](=O)[O-])CCCn1ccnc1[N+](=O)[O-] [Compound 23] | 1.28 | –
34 | O=[N+]([O-])c1ccc(N2N=C(c3ccc4ccccc4c3O)CC2c2ccc(Cl)cc2Cl)c([N+](=O)[O-])c1 (stereo not drawn) [Compound 27] | 2.25 | –
35 | CCN(CC)CCCNc1nccc2c(C)c3[nH]c4ccncc4c(=O)c3cc12 [Compound 15] | 2.15 | –
36 | CC(=O)C1=C(N=[N+]=[N-])c2cccc3cccc(c23)C1=O [Compound 26] | 0.95 | –
37 | Cc1ccc2c(c1)C=CC1(O2)N(c2ccccc2)C(=S)OC1(C)C (stereo not drawn) [Compound 30] | 0.85 | –
